In patent US5306712A, “Fungicidal silicon-containing compounds and their agrochemical and medicinal uses” (Sanyo Company, Limited, priority 1991, dated 1994):
Values after ≈ are worked out from the molar mass of the structure shown.

Tests used:
[1] = system: Aspergillus niger (Fungus A); test: Antifungal Activity (paper disc on agar); conditions: 30 μl of 300 ppm acetone solution, 25° C., 5 days
Protocol: (§4) A fungal disc of about 4 mm diameter was inoculated on an agar medium (2% by weight malt extract, 1% glucose, 0.3% peptone and 2% agar) in a petri dish of diameter 9 cm, by placing the disc on the center of the medium. Paper disc specimens were prepared by impregnating 30 μl of an acetone solution containing 300 ppm of the test compound into the disc (diameter 8 mm, thickness 0.7 mm) and then subjecting it to dry sterilization. The disc specimens were placed in a circle at about 1 cm distance from the fringe of the grown fungus, three days after the inoculation. The specimens were then maintained at 25° C. for 5 days, after which the antifungal activity was determined by visual observation of infection of the specimens by the fungus. The fungi tested were:
Aspergillus niger (Fungus A),

[2] = system: Fusarium moliniforme (Fungus C); test: Antifungal Activity (paper disc on agar); conditions: 30 μl of 300 ppm acetone solution, 25° C., 5 days
Protocol: as §4
Fusarium moliniforme (Fungus C).
The antifungal activity is indicated by the following ratings:

[3] = system: Gliocladium virens (Fungus B); test: Antifungal Activity (paper disc on agar); conditions: 30 μl of 300 ppm acetone solution, 25° C., 5 days
Protocol: as §4
Gliocladium virens (Fungus B), and

[4] = system: Coriolus versicolor (Fungus D); test: Wood-preservative Activity (Antidecay); conditions: paper disc, 30 μl of 300 ppm acetone solution, 25° C., 5 days
Protocol: (§5) A fungal disc of about 4 mm diameter was inoculated on an agar medium (2% by weight malt extract, 1% glucose, 0.3% peptone and 2% agar) in a petri dish of diameter 9 cm, by placing the disc on the center of the medium. Paper disc specimens were prepared by impregnating 30 μl of an acetone solution containing 300 ppm of the test compound into the disc (diameter 8 mm, thickness 0.7 mm) and then subjecting it to dry sterilization. The disc specimens were placed in a circle at about 1 cm distance from the fringe of the grown fungus, three days after the inoculation. The specimens were then maintained at 25° C. for 5 days, after which the antifungal activity was determined by visual observation of infection of the specimens by the fungus.
(§6) The procedure described in Experiment 7 was repeated, except that the fungi tested were Coriolus versicolor (Fungus D) and Tyromyces palustris (Fungus E), which are prescribed in JIS A-9201.

[5] = system: Tyromyces palustris (Fungus E); test: Wood-preservative Activity (Antidecay); conditions: paper disc, 30 μl of 300 ppm acetone solution, 25° C., 5 days
Protocol: as §5, §6

Mucor mucedo = test: Antifungal Test (MIC, Sabouraud's agar); assay type: cell-based; conditions: 120 h
Candida Albicans Sc. = test: Antifungal Test (MIC, Sabouraud's agar); assay type: cell-based; conditions: 48 h, C. albica, 27° C., 2 days
Protocol: (§1) (i) Preparation of the test solution: The sample to be tested was examined to determine a suitable solvent from those listed below and the method of dissolution, and then the sample was weighed (about 10 mg), dissolved in the selected solvent and diluted with sterilized distilled water to a concentration of 500 μg/ml. Samples of the resulting solution were then subjected to sequential dilution to half the previous concentration to prepare I2 samples in which the concentration of active compound is progressively halved.
(§2) (ii) Test procedure for antifungal activity: Using Nunklon (Registered trademark) 24.hole plates (manufactured by Nunk K. K.), 0.1 ml each of the diluted solutions described above was poured into a hole, 0.9 ml of Sabouraud's agar medium was added to each hole, giving a total of 1 ml in each hole, and mixed to prepare the plate medium.
1 Candida Albicans Sc. (C. albica)
(§3) These test strains were inoculated by means of a slant on Sabouraud's agar medium, cultured at 27° C. for 2 days for the yeast strains or for 7 to 14 days for the mold strains, and, kept intact, preserved at 5° C. (subcultured every 1 month). On the day of the test, in the case of the yeast medium, physiological saline to which had previously been added Tween 80 in an amount of 0.1% (w/v) was added to each medium to prepare 10^6 cells/ml suspensions; and, in the case of the mold medium, 4 ml each of the solution above was added to the surface of the agar slant, the surface was rubbed slightly with a stirrer or a platinum loop to suspend the spores, and then, by filtration through a funnel on which 2 sterilized gauzes were placed one upon another, 10^6 cells/ml suspensions were prepared. Using an Eppendorf pipette, 0.1 ml each of these suspension preparations was inoculated and cultivated. The culture was conducted at 27° C. for 2 days for the three strains of yeast, for 5 days for molds 4 , 5 and 6, and for 7 days for molds 7 and 8 to determine minimal inhibitory concentrations of the test samples.

Microsporum gypseum = test: Antifungal Test (MIC, Sabouraud's agar); assay type: cell-based; conditions: Nannizzia gypsea, 120 h
Protocol: as §1, §2
6 Microsporum gypseum (M. gypseu)
as §3

Candida albicans 427 = test: Antifungal Test (MIC, Sabouraud's agar); assay type: cell-based; conditions: Candida albicans, 427, 48 h
Aspergillus fumigatus = test: Antifungal Test (MIC, Sabouraud's agar); assay type: cell-based; conditions: 120 h, A. fumiga, 27° C., 5 days
Protocol: as §1, §2
5 Aspergillus fumigatus (A. fumiga)
as §3

Trichophyton rubrum Sc. = test: Antifungal Test (MIC, Sabouraud's agar); assay type: cell-based; conditions: 168 h
[6] = system: Cryptococcus neoformans 58063; test: Antifungal Test (MIC, Sabouraud's agar); assay type: cell-based; conditions: Cryptococcus neoformans, 58063, 48 h; C. neofor; 27° C., 2 days
Protocol: as §1, §2
3 Cryptococcus neoformans 58063 (C. neofor)
as §3

[7] = system: Trichophyton mentagrophytes Sc.; test: Antifungal Test (MIC, Sabouraud's agar); assay type: cell-based; conditions: 168 h, T. mentag, 27° C., 7 days
Protocol: as §1, §2
7 Trichophyton mentagrophytes Sc. (T. mentag)
as §3

Row | SMILES | antifungal activity, Fungus A [1] | antifungal activity, Fungus C [2] | antifungal activity, Fungus B [3] | wood-preservative (antidecay) activity, Fungus D [4] | wood-preservative (antidecay) activity, Fungus E [5] | MIC (Mucor mucedo) [µg/mL] | MIC (Candida Albicans Sc.) [µg/mL] | MIC (Microsporum gypseum) [µg/mL] | MIC (Candida albicans 427) [µg/mL] | MIC (Aspergillus fumigatus) [µg/mL] | MIC (Trichophyton rubrum Sc.) [µg/mL] | MIC [6] [µg/mL] | MIC [7] [µg/mL]
1 | Cc1ccc(C(O)(Cn2cncn2)C[Si](C)(C)C)cc1 (stereo not shown) [Compound 1-5, 2-(4-Methylphenyl)-1-(1H-1,2,4-triazol-1-yl)-3-trimethylsilyl-2-propanol] | + | + | + | + | + |  |  |  |  |  |  |  | 
2 | C[Si](C)(C)CC(O)(Cn1cncn1)c1ccc(Cl)c(Cl)c1 (stereo not shown) [Compound 1-29, 2-(3,4-Dichlorophenyl)-1-(1H-1,2,4-triazol-1-yl)-3-trimethylsilyl-2-propanol] | - | + | - | - | - |  |  |  |  |  |  |  | 
3 | C[Si](C)(C)CC(O)(Cn1cncn1)c1ccc(F)cc1 (stereo not shown) [Compound 1-3, 2-(4-Fluorophenyl)-1-(1H-1,2,4-triazol-1-yl)-3-trimethylsilyl-2-propanol] | + |  |  |  |  | > 50 | > 50 | > 50 | > 50 | > 50 | 25 (≈ 85.2 µM) | > 50 | 25 (≈ 85.2 µM)
4 | C[Si](C)(C)CC(O)(Cn1cncn1)c1ccccc1F (stereo not shown) [Compound 1-17, 2-(2-Fluorophenyl)-1-(1H-1,2,4-triazol-1-yl)-3-trimethylsilyl-2-propanol] | + | + | + | + | + |  |  |  |  |  |  |  | 
5 | C[Si](C)(C)CC(O)(Cn1cncn1)c1ccccc1 (stereo not shown) [Compound 1-1, 2-Phenyl-1-(1H-1,2,4-triazol-1-yl)-3-trimethylsilyl-2-propanol] | + | + | - | + | + |  |  |  |  |  |  |  | 
6 | C[Si](C)(C)CC(O)(Cn1cncn1)c1ccc(C(F)(F)F)cc1 (stereo not shown) [Compound 1-6, 1-(1H-1,2,4-Triazol-1-yl)-2-(4-trifluoromethylphenyl)-3-trimethylsilyl-2-propanol] | + | + | - | + | + |  |  |  |  |  |  |  | 
7 | C[Si](C)(C)CC(O)(Cn1cncn1)c1ccccc1Cl (stereo not shown) [Compound 1-16, 2-(2-Chlorophenyl)-1-(1H-1,2,4-triazol-1-yl)-3-trimethylsilyl-2-propanol] | + | + | + | + | + |  |  |  |  |  |  |  | 
8 | C[Si](C)(C)CC(O)(Cn1cncn1)c1ccc(Br)cc1 (stereo not shown) [Compound 1-4, 2-(4-Bromophenyl)-1-(1H-1,2,4-triazol-1-yl)-3-trimethylsilyl-2-propanol] | + | + | + | + | + |  |  |  |  |  |  |  | 
9 | C[Si](C)(CC(O)(Cn1cncn1)c1ccc(F)cc1)c1ccc(Cl)cc1 (stereo not shown) [Compound 1-69, 3-[(4-Chlorophenyl)dimethylsilyl]-2-(4-fluorophenyl)-1-(1H-1,2,4-triazol-1-yl)-2-propanol] | - | + | - | + | - |  |  |  |  |  |  |  | 
10 | C[Si](C)(C)CC(O)(Cn1ccnc1)c1ccc(F)cc1F (stereo not shown) [Compound 1-50, 2-(2,4-Difluorophenyl)-1-(1H-1,3-imidazol-1-yl)-3-trimethylsilyl-2-propanol] | - | + | - | + | - |  |  |  |  |  |  |  | 
11 | C[Si](C)(C)CC(O)(Cn1cncn1)c1ccc(Cl)cc1Cl (stereo not shown) [Compound 1-11, 2-(2,4-Dichlorophenyl)-1-(1H-1,2,4-triazol-1-yl)-3-trimethysilyl-2-propanol] | + | + | + | + | + |  |  |  |  |  |  |  | 
12 | C[Si](C)(C)CC(O)(Cn1cncn1)c1ccc(F)cc1 (stereo not shown) [Compound 1-78, Adduct of 2-(4-fluorophenyl)-1-(1H1,2,4-triazol-1-yl)-3-trimethylsilyl-2-propanol with saccharin] | - | + | + | + | + |  |  |  |  |  |  |  | 
13 | C[Si](C)(C)CC(O)(Cn1cncn1)c1ccc(Cl)cc1 (stereo not shown) [Compound 1-83, Adduct of 2-(4-chlorophenyl)-1-(1H-1,2,4-triazol-1-yl)-3-trimethylsilyl-2-propanol with saccharin] | - | + | + | + | + |  |  |  |  |  |  |  | 
14 | C[Si](C)(C)CC(O)(Cn1ccnc1)c1ccc(Cl)cc1Cl (stereo not shown) [Compound 1-49, 2-(2,4-Dichlorophenyl)-1-(1H-1,3-imidazol-1-yl)-3-trimethylsilyl-2-propanol] | - | - | - | + | - |  |  |  |  |  |  |  | 
15 | C[Si](C)(C)CC(O)(Cn1cncn1)c1ccc(Cl)cc1F (stereo not shown) [Compound 1-14, 2-(4-Chloro-2-fluorophenyl)-1-(1H-1,2,4-triazol-1-yl)-3-trimethylsilyl-2-propanol] | + | + | + | + | + |  |  |  |  |  |  |  | 
16 | C[Si](C)(C)CC(O)(Cn1cncn1)c1ccc(Cl)c(Cl)c1Cl (stereo not shown) [Compound 1-64, 1-(1H-1,2,4-Triazol-1-yl)-2-(2,3,4-trichlorophenyl)-3-trimethylsilyl-2-propanol] | - | - | - | - | + |  |  |  |  |  |  |  | 
17 | C[Si](C)(C)CC(O)(Cn1cncn1)c1cc(Cl)c(Cl)cc1Cl (stereo not shown) [Compound 1-65, 1-(1H-1,2,4-Triazol-1-yl)-2-(2,4,5-trichlorophenyl)-3-trimethylsilyl-2-propanol] | - | + | - | - | - |  |  |  |  |  |  |  | 
18 | CC[Si](C)(C)CC(O)(Cn1cncn1)c1ccc(F)cc1 (stereo not shown) [Compound 1-70, 3-Dimethylethylsilyl-2-(4-fluorophenyl)-1-(1H-1,2,4-triazol-1-yl)-2-propanol] | - | + | + | + | + |  |  |  |  |  |  |  | 
